From US20120059162A1, “FUSED IMIDAZOLE DERIVATIVE HAVING TTK INHIBITORY ACTION” (Oncotherapy Science, Inc., priority 2009, published 2012)
Read-outs that look alike come from different tables or passages of the source.

Legend:
A549 = A549 assay: screening of cancer cell growth inhibiting compound; assay type: cell-based; details: Homo sapiens
Experimental: Screening of Cancer Cell Growth Inhibiting Compound
A cell suspension solution (RERF-LC-AI, A549: 1×10^4/ml, MRC5: 3×10^4/ml and 1×10^5/ml) adjusted to an appropriate concentration with D-MEM (hereinafter, referred to as a culture solution and manufactured by Nacalai Tesque Inc.) supplemented with 10% FBS (HyClone) was added to the wells of a 96-well plate (hereinafter, well plate) at a rate of 100 μL/well and incubated in a CO2 incubator at 37° C. for a day. […] Next, cells were added to each well of the well plate prepared and the above compound dilution solution was added at a rate of 100 μL/well to obtain 200 μL/well. Thereafter, the cells were incubated in the CO2 incubator at 37° C. for further three days. To each well of the well plate, 10 μL of a WST-8 kit (Kishida Chemical Co., Ltd.) solution for counting the number of cells was added and a color reaction was performed in the CO2 incubator for 1 to 4 hours. After the absorbance at 450 nm (reference wavelength: 620 nm) was measured by a microplate reader, suppressing action of the test substance was calculated based on the absorbance value in the absence of a test substance.

TTK = molecular target: T1, TTK (Homo sapiens, UniProt P33981); experiment: TTK assay: screening of TTK kinase activity suppressing action using p38 MAPK peptide; assay type: biochemical
T1 sequence (P33981 1-857): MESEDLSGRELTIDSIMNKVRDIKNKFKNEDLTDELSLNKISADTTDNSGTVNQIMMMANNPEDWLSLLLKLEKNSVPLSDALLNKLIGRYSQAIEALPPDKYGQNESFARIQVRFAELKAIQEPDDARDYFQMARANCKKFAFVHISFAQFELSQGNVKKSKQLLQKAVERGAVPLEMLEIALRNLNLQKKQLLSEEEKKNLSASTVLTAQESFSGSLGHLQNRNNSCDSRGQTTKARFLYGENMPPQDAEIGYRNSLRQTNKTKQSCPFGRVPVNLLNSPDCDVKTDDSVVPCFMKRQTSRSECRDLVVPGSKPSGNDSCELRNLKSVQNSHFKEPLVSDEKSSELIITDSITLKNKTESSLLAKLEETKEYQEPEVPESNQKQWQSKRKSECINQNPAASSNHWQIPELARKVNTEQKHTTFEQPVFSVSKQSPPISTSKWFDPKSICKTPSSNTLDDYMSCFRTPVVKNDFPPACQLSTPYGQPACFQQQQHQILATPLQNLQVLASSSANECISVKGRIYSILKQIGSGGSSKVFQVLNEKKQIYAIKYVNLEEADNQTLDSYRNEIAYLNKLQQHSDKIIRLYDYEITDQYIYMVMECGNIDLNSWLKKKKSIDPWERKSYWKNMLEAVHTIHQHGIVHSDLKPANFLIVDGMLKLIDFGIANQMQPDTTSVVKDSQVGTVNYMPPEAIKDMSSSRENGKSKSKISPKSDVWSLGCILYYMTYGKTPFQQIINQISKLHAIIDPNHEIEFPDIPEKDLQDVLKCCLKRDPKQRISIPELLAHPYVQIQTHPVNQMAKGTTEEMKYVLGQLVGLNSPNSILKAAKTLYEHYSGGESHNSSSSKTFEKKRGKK
Experimental: Screening of a compound having a TTK kinase activity suppressing action using p38 MAPK peptide
A test substance 1.0 μL (solvent: 10% (v/v) DMSO), TTK solution 5 μL (composition: 4 μg/ml TTK, 25 mM Tris-HCl, pH7.5, 5 mM β-glycerophosphate, 2 mM DTT, 0.1 mM Na3VO4, 5 mM MgCl2, 0.1% (w/v)BSA) and a substrate solution 5 μL (composition: 60 μM p38 MAPK peptide, 60 μM ATP, 25 mM Tris-HCl, pH7.5, 5 mM β-glycerophosphate, 2 mM DTT, 0.1 mM Na3VO4, 5 mM MgCl2, 0.1% (w/v)BSA) were mixed in the wells of a 384-well microtiter plate (manufactured by Corning Incorporated) made of polypropylene and loaded in a constant temperature and humidity room.
From the resultant mixture, an aliquot of 1.7 μL was taken out and mixed with the reaction terminating solution (60 μl) in the wells of a 384-well microtiter plate (manufactured by Corning Incorporated) made of polypropylene. Thereafter, 40 μL of the mixture was transferred to a 384-well black NeutrAvidin plate (PIERCE), sealed and incubated under room temperature for 30 minutes. […] Similarly, the plate was washed with TTBS (100 μL) three times, 40 μl of a secondary antibody solution (Eu-N1 labeled Anti-mouse IgG (Perkin Elmer, #AD0124)) was added and incubated under room temperature for 30 minutes. After the plate was washed with TTBS (100 μL) five times, 40 μL of an enhance solution (Perkin Elmer) was added and incubated under room temperature for 5 minutes. […] Based on the fluorescence value in the absence of a test substance, the suppression activity of a test substance was measured.

[1] = 72 h, A549 cells, three days, WST-8, read-out: A549 IC50
[2] = p38 MAPK peptide substrate, read-out: TTK IC50

Row | SMILES | IC50 (A549; [1]) | IC50 (TTK; [2]) | IC50 (TTK; read-out: TTK IC50) | IC50 (A549; A549, 72 h, read-out: A549 IC50 (μM)) | IC50 (TTK)
1 | N#Cc1ccc(-c2cn3c(-c4ccc(C(=O)NC5CC5)cc4)cnc3c(NCc3cccs3)n2)cc1 [Example 1-212] | 0.05 to 0.5 µM | 0.0072 µM |  |  | 
2 | N#CCCNc1nc(-c2ccc(C#N)cc2)cn2c(-c3ccc(C(=O)NC4CC4)cc3)cnc12 [Example 1-213] | 0.05 to 0.5 µM | 0.0161 µM |  |  | 
3 | N#Cc1ccc(-c2cn3c(-c4ccc(C(=O)NC5CC5)cc4)cnc3c(NCCSCCO)n2)cc1 [Example 1-214] | 0.05 to 0.5 µM | 0.0067 µM |  |  | 
4 | N#Cc1ccc(-c2cn3c(-c4ccc(C(=O)NC5CC5)cc4)cnc3c(NCCN3CCOCC3)n2)cc1 [Example 1-216] | 0.05 to 0.5 µM | 0.0204 µM |  |  | 
5 | N#Cc1ccc(-c2cn3c(-c4ccc(C(=O)NC5CC5)cc4)cnc3c(NCCOCCO)n2)cc1 [Example 1-217] | 1 to 10 µM | 0.0489 µM |  |  | 
6 | N#Cc1ccc(-c2cn3c(-c4ccc(C(=O)NC5CC5)cc4)cnc3c(NCCCO)n2)cc1 [Example 1-218] | 0.05 to 0.5 µM | 0.0144 µM |  |  | 
7 | N#Cc1ccc(-c2cn3c(-c4ccc(C(=O)NC5CC5)cc4)cnc3c(NCC3CC3)n2)cc1 [Example 1-219] | 0.05 to 0.5 µM | 0.0095 µM |  |  | 
8 | N#Cc1ccc(-c2cn3c(-c4ccc(C(=O)NC5CC5)cc4)cnc3c(NCc3nccs3)n2)cc1 [Example 1-220] | 0.05 to 0.5 µM | 0.0196 µM |  |  | 
9 | N#Cc1ccc(-c2cn3c(-c4ccc(C(=O)NC5CC5)cc4)cnc3c(NCCC3CCOCC3)n2)cc1 [Example 1-221] | 0.05 to 0.5 µM | 0.0095 µM |  |  | 
10 | N#Cc1ccc(-c2cn3c(-c4ccc(C(=O)NC5CC5)cc4)cnc3c(NCC3COCCO3)n2)cc1 (stereo not shown) [Example 1-222] | 0.05 to 0.5 µM | 0.0168 µM |  |  | 
11 | N#Cc1ccc(-c2cn3c(-c4ccc(C(=O)NC5CC5)cc4)cnc3c(NCCS(=O)(=O)N3CCCC3)n2)cc1 [Example 1-224] | 0.5 to 1 µM | 0.0183 µM |  |  | 
12 | N#Cc1ccc(-c2cn3c(-c4ccc(C(=O)NC5CC5)cc4)cnc3c(NCCc3cccc(O)c3)n2)cc1 [Example 1-226] | 0.5 to 1 µM | 0.0171 µM |  |  | 
13 | N#Cc1ccc(-c2cn3c(-c4ccc(C(=O)NC5CC5)cc4)cnc3c(NCCc3ccc(O)cc3)n2)cc1 [Example 1-228] | 0.5 to 1 µM | 0.0205 µM |  |  | 
14 | CC(=O)N1CCC(CNc2nc(-c3ccc(C#N)cc3)cn3c(-c4ccc(C(=O)NC5CC5)cc4)cnc23)CC1 [Example 1-233] | 0.5 to 1 µM | 0.0202 µM |  |  | 
15 | CC(C)(O)CNc1nc(-c2ccc(C#N)cc2)cn2c(-c3ccc(C(=O)NC4CC4)cc3)cnc12 [Example 1-235] | 0.05 to 0.5 µM | 0.0128 µM |  |  | 
16 | N#Cc1ccc(-c2cn3c(-c4ccc(C(=O)NC5CC5)cc4)cnc3c(NCC(F)F)n2)cc1 [Example 1-236] | 0.05 to 0.5 µM | 0.0083 µM |  |  | 
17 | N#Cc1ccc(-c2cn3c(-c4ccc(C(=O)NC5CC5)cc4)cnc3c(NCCOCCOCCO)n2)cc1 [Example 1-237] | 1 to 10 µM | 0.0399 µM |  |  | 
18 | N#Cc1ccc(-c2cn3c(-c4ccc(C(=O)NC5CC5)cc4)cnc3c(NCCCCO)n2)cc1 [Example 1-238] | 0.05 to 0.5 µM | 0.0143 µM |  |  | 
19 | N#Cc1ccc(-c2cn3c(-c4ccc(C(=O)NC5CC5)cc4)cnc3c(NC[C@H]3CC[C@H](C(=O)O)CC3)n2)cc1 [Example 1-239] | 1 to 10 µM | 0.0048 µM |  |  | 
20 | CC(C)CNc1cc(NC2CCCCC2)nn2c(-c3ccc(C(=O)NC4CC4)cc3)cnc12 [Example 2-2, 4-(6-(Cyclohexylamino)-8-(isobutylamino)imidazo[1,2-b]pyridazin-3-yl)-N-cyclopropylbenzamide] |  |  |  | 0.05 to 0.5 µM | 0.0118 µM

Now from value to compound, other results behind:

Row | IC50 (A549; [1]) | IC50 (TTK; [2]) | IC50 (TTK; read-out: TTK IC50) | SMILES | IC50 (A549; A549, 72 h, read-out: A549 IC50 (μM)) | IC50 (TTK)
21 | 1 to 10 µM | 0.0045 µM |  | NC(=O)c1ccc(-c2cc(NCC3CCOCC3)c3ncc(-c4ccc(C(=O)NC5CC5)cc4)n3n2)cc1 [Example 2-4, 4-(6-(4-Carbamoylphenyl)-8-((tetrahydro-2H-pyran-4-yl)methylamino)imidazo[1,2-b]pyridazin-3-yl)-N-cyclopropylbenzamide] |  | 
22 | 0.05 to 0.5 µM | 0.0119 µM |  | O=C(NC1CC1)c1ccc(-c2cc(NCC3CCOCC3)c3ncc(-c4ccc(C(=O)NC5CC5)cc4)n3n2)cc1 [Example 2-6, 4,4′-(8-((Tetrahydro-2H-pyran-4-yl)methylamino)imidazo[1,2-b]pyridazine-3,6-diyl)bis(N-cyclopropylbenzamide)] |  | 
23 | 0.5 to 1 µM | 0.0197 µM |  | Cc1nc(C)c(-c2cc(NCC3CCOCC3)c3ncc(-c4ccc(C(=O)NC5CC5)cc4)n3n2)s1 [Example 2-9] |  | 
24 | 0.05 to 0.5 µM | 0.0084 µM |  | O=C(NC1CC1)c1ccc(-c2cnc3c(NCC4CCOCC4)cc(N4CCCCC4)nn23)cc1 [Example 2-12] |  | 
25 | 0.05 to 0.5 µM | 0.0059 µM |  | O=C(NC1CC1)c1ccc(-c2cnc3c(NCC4CCOCC4)cc(NC4CCOCC4)nn23)cc1 [Example 2-13] |  | 
26 | 0.05 to 0.5 µM | 0.0093 µM |  | O=C(NC1CC1)c1ccc(-c2cnc3c(NCC4CCOCC4)cc(N4CCOCC4)nn23)cc1 [Example 2-14] |  | 
27 | 0.05 to 0.5 µM | 0.0257 µM |  | CN1CCN(c2cc(NCC3CCOCC3)c3ncc(-c4ccc(C(=O)NC5CC5)cc4)n3n2)CC1 [Example 2-15] |  | 
28 | 0.05 to 0.5 µM | 0.0048 µM |  | O=C(NC1CC1)c1ccc(-c2cnc3c(NCC4CCOCC4)cc(NCC4CCCCC4)nn23)cc1 [Example 2-16] |  | 
29 | ≤ 0.05 µM | 0.0031 µM |  | CN(c1cc(NCC2CCOCC2)c2ncc(-c3ccc(C(=O)NC4CC4)cc3)n2n1)C1CCCCC1 [Example 2-17] |  | 
30 | 0.05 to 0.5 µM | 0.0184 µM |  | COCCNc1cc(NCC2CCOCC2)c2ncc(-c3ccc(C(=O)NC4CC4)cc3)n2n1 [Example 2-18] |  | 
31 | 0.05 to 0.5 µM | 0.006 µM |  | CC1CCC(Nc2cc(NCC3CCOCC3)c3ncc(-c4ccc(C(=O)NC5CC5)cc4)n3n2)CC1 (stereo not shown) [Example 2-19] |  | 
32 | 0.05 to 0.5 µM | 0.007 µM |  | CCCNc1cc(NCC2CCOCC2)c2ncc(-c3ccc(C(=O)NC4CC4)cc3)n2n1 [Example 2-21] |  | 
33 | 0.05 to 0.5 µM | 0.0062 µM |  | CC(C)CNc1cc(NCC2CCOCC2)c2ncc(-c3ccc(C(=O)NC4CC4)cc3)n2n1 [Example 2-22] |  | 
34 | 0.05 to 0.5 µM | 0.0088 µM |  | N#CC1CCN(c2cc(NCC3CCOCC3)c3ncc(-c4ccc(C(=O)NC5CC5)cc4)n3n2)CC1 [Example 2-23] |  | 
35 | 0.05 to 0.5 µM | 0.0055 µM |  | CC(C)N(C)c1cc(NCC2CCOCC2)c2ncc(-c3ccc(C(=O)NC4CC4)cc3)n2n1 [Example 2-24] |  | 
36 | 0.05 to 0.5 µM | 0.0056 µM |  | O=C(NC1CC1)c1ccc(-c2cnc3c(NCC4CCOCC4)cc(NC4CCC4)nn23)cc1 [Example 2-25] |  | 
37 |  |  | 0.527 µM | O=C(NC1CC1)c1ccc(-c2noc3c(NCC4CCOCC4)nc(NC4CCCC4)nc23)cc1 [Example 3-4, 4-(5-(cyclopentylamino)-7-((tetrahydro-2H-pyran-4-yl)methylamino)isoxazolo[4,5-d]pyrimidin-3-yl)-N-cyclopropylbenzamide] |  | 
